Results reported in patent US4859229A, “3-Aryluracils having an ether (thio) carbomyloxy or sulphomyloxy substituent on the aromatic moiety” (Hoffmann-La Roche Inc., priority 1986, dated 1989).

Test system: weeds, including weed grasses
Assay: herbicidal activity (general statement, no test described)
Format: in vivo
Details: in words; no rate or test printed

For `Cn1c(C(F)(F)F)cc(=O)n(-c2cc(O)c(Cl)cc2F)c1=O` [3-(4-chloro-2-fluoro-5-hydroxyphenyl)-1-methyl-6-trifluoromethyl-2,4(1H,3H)-pyrimidinedione], the herbicidal activity was “especially pronounced herbicidal activity”.
